{"source": "paper PMC11123956", "about": "“Nobiletin Stimulates Adrenal Hormones and Modulates the Circadian Clock in Mice” (Nutrients, 2024)", "key": {"[1]": {"assay": "Blood glucose after i.p. injection", "format": "in vivo, mice", "conditions": "100 mg/kg, after 4 h fasting, 0-90 min", "protocol": "Male C57BL/6J mice (7 weeks old) were purchased from Charles River Japan (Kanagawa, Japan) and used for the serum hormone assay and RT-PCR. Male ICR mice were purchased from Tokyo Laboratory Animals Science Co., Ltd. (Tokyo, Japan), and female PERIOD2::LUCIFERASE (PER2::LUC) knock-in mice (ICR background) bred at Waseda University were used for blood glucose measurements and in vivo imaging assays, respectively. The mice were all housed under conditions of controlled temperature (23 °C ± 3 °C), humidity (50% ± 20%), and lighting (lights on from 07:00 to 19:00 at Taisho Pharmaceutical Co., Ltd. or from 08:00 to 20:00 at Waseda University). In the 24 h cycle, Zeitgeber time 0 (ZT0) was designated as the time when the lights were turned on, and ZT12 was designated as the time when the lights were turned off. […]\nSerum corticosterone, adrenaline, and adreno-corticotropic hormone (ACTH) levels, and corticotropin releasing factor (CRF) in the hypothalamus, were measured using enzyme-linked immunosorbent assay (ELISA). […] Blood glucose levels were measured using a Glucose PILOT kit (Aventir Biotech, LLC, Carlsbad, CA, USA). The range of blood glucose that could be precisely measured with the kit was 20–600 mg/dL. […]"}, "[2]": {"target": "T1, PDE7A (Homo sapiens, UniProt Q13946)", "T1 construct": "purchased Eurofins Panlabs Discovery Services Taiwan, Ltd. (contract assay); host or cells: insect Sf9 cells", "T1 sequence (Q13946 whole entry)": "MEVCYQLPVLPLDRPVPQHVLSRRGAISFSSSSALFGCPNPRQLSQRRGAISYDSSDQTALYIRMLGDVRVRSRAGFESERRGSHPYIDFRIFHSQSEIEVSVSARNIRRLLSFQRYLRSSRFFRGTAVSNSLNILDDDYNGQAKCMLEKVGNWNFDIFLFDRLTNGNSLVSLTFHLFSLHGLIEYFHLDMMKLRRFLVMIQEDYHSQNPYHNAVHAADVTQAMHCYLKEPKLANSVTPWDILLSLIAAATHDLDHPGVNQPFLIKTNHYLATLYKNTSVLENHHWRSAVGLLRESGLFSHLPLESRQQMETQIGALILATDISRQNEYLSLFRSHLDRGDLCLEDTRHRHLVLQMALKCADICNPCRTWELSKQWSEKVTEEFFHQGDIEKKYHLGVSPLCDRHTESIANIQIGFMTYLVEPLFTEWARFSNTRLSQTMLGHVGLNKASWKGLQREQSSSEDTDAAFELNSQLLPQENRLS", "assay": "PDE enzyme  assay, PDE7A", "format": "biochemical", "protocol": "(§1) Enzyme assays for various subtypes of PDE (Table 1 and Figure 4) were conducted by Eurofins Panlabs Discovery Services Taiwan, Ltd. (New Taipei City, Taiwan). In the assays, five or six concentrations of nobiletin over five or six orders of magnitude were examined in experiments conducted in duplicate to determine the IC50 (concentration of nobiletin exerting half-maximal inhibition of control-specific activity). IC50 values were determined by nonlinear least squares regression analysis using MathIQTM (ID Business Solutions Ltd., Woking, UK). FAM-cAMP, FAM-cGMP (0.1 μM), and 100 μM [^3H]cGMP + cGMP were used for the substrate in the human recombinant insect Sf9 cells or Bovine retinal rod outer segments depending on the PDE subtype. The spectrofluorometric quantitation of fluorescein-AMP-IMAP, fluorescein-GMP-IMAP, or [^3H] guanosine was used depending on the PDE subtype. A known […] of each PDE was used as the positive control."}, "[3]": {"target": "T2, PDE4A1A (Homo sapiens, UniProt P27815)", "T2 construct": "purchased Eurofins Panlabs Discovery Services Taiwan, Ltd. (contract assay); host or cells: insect Sf9 cells", "T2 sequence (P27815 1-647 isoform P27815-4)": "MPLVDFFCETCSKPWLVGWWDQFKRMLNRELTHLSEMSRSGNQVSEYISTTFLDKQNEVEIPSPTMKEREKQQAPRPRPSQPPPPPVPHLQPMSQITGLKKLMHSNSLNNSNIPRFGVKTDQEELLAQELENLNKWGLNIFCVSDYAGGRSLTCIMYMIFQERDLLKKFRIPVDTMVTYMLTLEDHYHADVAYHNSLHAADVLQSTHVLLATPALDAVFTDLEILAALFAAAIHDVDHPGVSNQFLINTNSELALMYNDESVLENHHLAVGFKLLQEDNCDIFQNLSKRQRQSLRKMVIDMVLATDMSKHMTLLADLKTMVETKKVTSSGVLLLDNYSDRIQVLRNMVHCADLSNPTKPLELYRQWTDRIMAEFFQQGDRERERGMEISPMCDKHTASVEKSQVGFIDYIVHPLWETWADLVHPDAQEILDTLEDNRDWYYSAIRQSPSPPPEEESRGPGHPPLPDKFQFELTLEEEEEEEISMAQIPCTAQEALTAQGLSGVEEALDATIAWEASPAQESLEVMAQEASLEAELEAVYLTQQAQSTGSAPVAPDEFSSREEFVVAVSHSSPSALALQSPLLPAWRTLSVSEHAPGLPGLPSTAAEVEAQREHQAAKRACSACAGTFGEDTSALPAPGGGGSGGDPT", "assay": "PDE enzyme (kinase) assay, PDE4A1A", "format": "biochemical", "protocol": "as §1\nFigure 4 PDE kinase assays and the acute clock gene expression changes by PDE4 inhibitor or ROR α/γ agonist. (A) Inhibitory effect of nobiletin on PDE4A1, 4B1, and 10A2. Various concentrations of nobiletin (1–100 μM) were used for IC50 determination (Table 1). Values represent the mean of two experiments. Positive controls were rolipram for PDE4A1 and 4B1 and papaverine for PDE10A2. […]"}, "[4]": {"target": "T3, PDE7B (Homo sapiens, UniProt Q9NP56)", "T3 construct": "purchased Eurofins Panlabs Discovery Services Taiwan, Ltd. (contract assay); host or cells: insect Sf9 cells", "T3 sequence (Q9NP56 whole entry)": "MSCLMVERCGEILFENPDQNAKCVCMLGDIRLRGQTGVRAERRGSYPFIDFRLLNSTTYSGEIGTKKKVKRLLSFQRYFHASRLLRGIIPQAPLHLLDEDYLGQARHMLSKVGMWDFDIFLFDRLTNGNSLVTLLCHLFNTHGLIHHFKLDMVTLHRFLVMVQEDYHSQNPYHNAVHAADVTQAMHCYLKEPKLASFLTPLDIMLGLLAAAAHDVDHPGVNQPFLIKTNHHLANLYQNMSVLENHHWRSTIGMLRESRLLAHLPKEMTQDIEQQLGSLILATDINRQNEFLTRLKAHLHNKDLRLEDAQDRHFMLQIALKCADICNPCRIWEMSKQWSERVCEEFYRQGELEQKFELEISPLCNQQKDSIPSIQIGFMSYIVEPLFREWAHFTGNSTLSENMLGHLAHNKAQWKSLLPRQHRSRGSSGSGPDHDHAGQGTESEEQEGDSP", "assay": "PDE enzyme  assay, PDE7B", "format": "biochemical", "protocol": "as §1"}}}
{"smiles": "COc1ccc(-c2cc(=O)c3c(OC)c(OC)c(OC)c(OC)c3o2)cc1OC", "note": "[nobiletin]", "values": [{"measurement": "blood glucose levels", "setting": "[1]", "value": "increased"}, {"measurement": "IC50", "setting": "[2]", "value": 11.9, "unit": "µM"}, {"measurement": "IC50", "setting": "[3]; IC50, PDE4A1A, bound stated in the discussion", "value": "≤ 6.03", "unit": "µM"}, {"measurement": "IC50", "setting": "[3]; IC50 Dose, PDE4A1A, duplicate", "value": 5.23, "unit": "µM"}, {"measurement": "IC50", "setting": "[4]", "value": 20.4, "unit": "µM"}]}
